Test results taken from patent US6160008A, “Pharmaceutical compositions comprising S-alkylisothiouronium derivatives” (priority 1996, dated 2000).
“Also recorded” adds a separate entry of the source.

What was measured:
[1] = test system: acute arterial hypotension, caused by prazosin; assay: Acute arterial hypotension caused by prazosin (Table 3); assay type: in vivo, cats; details: for AP / HF / Respiratory contraction frequency: 5 mg/kg i.v. after prazosin 1 mg/kg
Protocol: It was of interest to study the influence of S-ethylisothiouronium diethylphosphate the in case of hypotension caused by the injection of a known α1-adreno blocker, namely prazosin. Prazosin was injected singly intravenously at a dose of 1 mg/kg.

[2] = test system: system hemodynamic indices during hemorrhagic shock; assay: System hemodynamic indices during hemorrhagic shock (Table 4); assay type: in vivo, cats
Protocol: For the experimental model of hemorrhagic shock closely resembling acute clinical situations, acute blood loss in cats was chosen (3.2% of the body mass) which constitutes 45-47% of the blood circulation volume during 3-5 minutes. To determine maximum efficiency and effective duration, parameters of the system blood circulation were determined before blood-letting and in 30 minutes after blood-letting, as well as on the 2nd, 10th, 30th and 60th minutes after intravenous injection of the medicine.

[3] = test system: mice exposed to an oxygen pressure of 3 atm; assay: Survival under oxygen pressure of 3 atm, mice (Table 15); assay type: in vivo, F1 (CBAx57B1); details: for Number of survived animals: mice, 3 atm, 5 hours
Protocol: Animals were exposed to oxygen under increased pressure in a hyperbaric chamber <<Mana-2≤≤ for treatment of infants above 1 year, which was adjusted for the experiments on animals. The hyperbaric chamber design permitted to create excessive pressure up to 3 atm and to observe animal behavior from outside.
The experiments were performed on males of F1 (CBAx57B1) mice line and on males of Wistar rat line. Animals were placed in the hyperbaric chamber in plastic boxes and the atmospheric air was replaced by oxygen. The period of compression-decompression was 10 minutes. The exposure of the animals to an oxygen pressure of 3 atm during a period of 2 hours caused only some increase in their motion activity. Further staying of rats and mice in those conditions led to a decrease in the motion activity, to asphyxia with short periods of excitement and cramps. The death of some animals was registered after 2.5-3 hours, 50% after 4 hours, and 75% of mice and 100% of rats were dead after 5 hours.
When the influence of Difetur and Etyron was studied, the animals were exposed to an oxygen pressure of 3 atm during 5 hours if not otherwise specified. Preparations were injected 5-10 minutes before the session.

[4] = 5 mg/kg i.v., 2 min after injection
[5] = 5 mg/kg i.v., 10 min after injection
[6] = 5 mg/kg i.v., 30 min after injection
[7] = 5 mg/kg i.v., 60 min after injection

Structure (SMILES): CCSC(=N)N [S-ethylisothiouronium diethylphosphate]
- AP ([1]; 2 min): 135.0 ± 5.6 mm Hg
- HF ([1]; 2 min): 152.4 ± 9.4 per min.
- Respiratory contraction frequency ([1]; 2 min): 14.6 ± 3.9 min⁻¹
- AP ([1]; 15 min): 118.8 ± 10.3 mm Hg
- HF ([1]; 15 min): 146.4 ± 5.6 per min.
- Respiratory contraction frequency ([1]; 15 min): 12.4 ± 3.0 min⁻¹
- AP ([1]; 30 min): 116.3 ± 4.8 mm Hg
- HF ([1]; 30 min): 144.0 ± 5.0 per min.
- Respiratory contraction frequency ([1]; 30 min): 11.8 ± 2.3 min⁻¹
- AP ([1]; 60 min): 110.0 ± 7.4 mm Hg
- HF ([1]; 60 min): 135.6 ± 7.0 per min.
- Respiratory contraction frequency ([1]; 60 min): 11.0 ± 1.0 min⁻¹
- AP increase ([1]; 5 mg/kg i.v. after prazosin, 2nd minute): 29 mm Hg
- AP above the level on the 5th minute after blocker ([1]; 5 mg/kg i.v. after prazosin, 15th minute): 11.8%
- AP above the level on the 5th minute after blocker ([1]; 5 mg/kg i.v. after prazosin, 30th minute): 9.4%
- Effect under α1-adreno blockade in words ([1]; after prazosin): Statistically significant changes of HR and respiratory movement frequency were not observed; also recorded: increases AP also on the background of α1-adreno blockers though with a lower duration than without them; also recorded: retain its activity in conditions of alpha-adrenergic blockade
- AP increase compared to the 30th minute after bleeding ([2]; 5 mg/kg i.v., 2nd minute): 88%
- ALV [2, 4]: 166.6 ± 18.4 g/cm
- AP [2, 4]: 122.3 ± 6.0 mm Hg
- Central blood volume [2, 4]: 58.6 ± 4.1 mL
- HF [2, 4]: 182.0 ± 15.0 per min.
- MVC [2, 4]: 52.4 ± 6.0 mL/min/kg
- Number of blood circulations [2, 4]: 2.9 ± 0.2 min
- Pr [2, 4]: 202.8 ± 28.7 10^3 . din . c . cm^-3
- Stroke volume [2, 4]: 1.0 ± 0.1 mL
- ALV [2, 5]: 130.5 ± 15.4 g/cm
- AP [2, 5]: 112.5 ± 7.6 mm Hg
- Central blood volume [2, 5]: 49.2 ± 4.5 mL
- HF [2, 5]: 186.0 ± 14.1 per min.
- MVC [2, 5]: 46.0 ± 5.7 mL/min/kg
- Number of blood circulations [2, 5]: 3.0 ± 0.2 min
- Pr [2, 5]: 225.1 ± 56.6 10^3 . din . c . cm^-3
- Stroke volume [2, 5]: 0.9 ± 0.1 mL
- ALV [2, 6]: 75.9 ± 19.4 g/cm
- AP [2, 6]: 87.5 ± 15.4 mm Hg
- Central blood volume [2, 6]: 43.2 ± 4.7 mL
- HF [2, 6]: 179.1 ± 12.4 per min.
- MVC [2, 6]: 30.8 ± 5.5 mL/min/kg
- Number of blood circulations [2, 6]: 2.4 ± 0.3 min
- Pr [2, 6]: 244.7 ± 39.1 10^3 . din . c . cm^-3
- Stroke volume [2, 6]: 0.6 ± 0.1 mL
- ALV [2, 7]: 77.0 ± 17.0 g/cm
- AP [2, 7]: 84.2 ± 18.9 mm Hg
- Central blood volume [2, 7]: 45.5 ± 5.1 mL
- HF [2, 7]: 166.8 ± 15.2 per min.
- MVC [2, 7]: 35.7 ± 5.5 mL/min/kg
- Number of blood circulations [2, 7]: 3.5 ± 0.2 min
- Pr [2, 7]: 245.3 ± 62.6 10^3 . din . c . cm^-3
- Stroke volume [2, 7]: 0.7 ± 0.1 mL
- MVC increase ([2]; 5 mg/kg i.v., initially): 19%
- Effect in hemorrhagic shock in words ([2]; hemorrhagic shock, cats): the decrease in HR was noted; also recorded: SV increased only on the 2nd minute after the medicine injection; also recorded: Alv essentially increased on the 2nd and 10th minutes; also recorded: PR increased during the whole period of observation; also recorded: practically does not lose efficiency in case of metabolic acidosis; also recorded: improves system hemodynamic indices in hemorrhagic shock conditions; also recorded: the peripheral vascular resistance increases, the stroke volume and central blood volume increase, and the work of the left ventricle improves
- Number of survived animals ([3]; 5 mg/kg): 25%
- Number of survived animals ([3]; 10 mg/kg): 65%
- Number of survived animals ([3]; 20 mg/kg): 88%
- Oxygen protective activity compared with Etyron ([3]; mouse, in vivo): exceed Etyron in oxygen protective activity
